From patent publication US20080009418A1, “Selective Inhibitors” (Alchemia LTD., priority 2004, published 2008)

Assays:
Human δ-opioid (DOP) = molecular target: T1, Human δ-opioid (DOP) (Homo sapiens, UniProt P41143); experiment: Radioligand binding, human δ-opioid (DOP) membranes, FlashPlate, [3H]-Bremazocine; settings: compound at 10 μM; for A1 radioligand binding inhibition: human δ-opioid (DOP) membranes
T1 construct: purchased Perkin Elmer Biosignal
Summary of the method: (§1)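 Cloned human receptor membranes were coated onto FlashPlate wells and incubated with radioligand and compound (added from a 0.5 mM DMSO daughter plate) for 1 hour at room temperature in the dark. Scintillation counting gave percent inhibition, with DMSO defining total and reference ligand defining non-specific binding.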

Human κ-Opioid (KOP) = molecular target: T2, Human κ-Opioid (KOP) (Homo sapiens, UniProt P41145); experiment: Radioligand binding, human κ-opioid (KOP) membranes, filtration, [3H]-Diprenorphine; settings: compound at 10 μM; for A2 radioligand binding inhibition: human κ-opioid (KOP) membranes
T2 construct: purchased Perkin Elmer Biosignal
Summary of the method: (§2)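 Filtration binding on cloned human receptor membranes (1 Unit/well), [125I]-Substance P for NK1 and [3H]-Diprenorphine for KOP, 1 h at room temperature. Filters PEI-presoaked, washed with cold 50 mM Tris-HCl pH 7.4, counted by scintillation; percent inhibition calculated, reference ligand defining non-specific binding.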

Human Melanocortin (MC3) = molecular target: T3, Human Melanocortin (MC3) (Homo sapiens, UniProt P41968); experiment: Radioligand binding, human melanocortin MC3 membranes, FlashPlate, [125I]-NDP-αMSH; settings: compound at 10 μM; for A3 radioligand binding inhibition: human melanocortin MC3 membranes
T3 construct: purchased Perkin Elmer Biosignal
Summary of the method: as §1

Human Melanocortin (MC4) = molecular target: T4, Human Melanocortin (MC4) (Homo sapiens, UniProt P32245); experiment: Radioligand binding, human melanocortin MC4 membranes, FlashPlate, [125I]-NDP-αMSH; settings: compound at 10 μM; for A4 radioligand binding inhibition: human melanocortin MC4 membranes
T4 construct: purchased Perkin Elmer Biosignal
Summary of the method: as §1

Human melanocortin (MC5) = molecular target: T5, Human melanocortin (MC5) (Homo sapiens, UniProt P33032); experiment: Radioligand binding, human melanocortin MC5 membranes, FlashPlate, [125I]-NDP-αMSH; settings: compound at 10 μM; for A5 radioligand binding inhibition: human melanocortin MC5 membranes
T5 construct: purchased Perkin Elmer Biosignal
Summary of the method: as §1

[1] = molecular target: T6, Human melanin-concentrating hormone (MCH1) (Homo sapiens, UniProt Q99705); experiment: Radioligand binding, human melanin-concentrating hormone MCH1 membranes, FlashPlate, [125I]-S36057; settings: compound at 10 μM; for A6 radioligand binding inhibition: human MCH1 membranes; for A6: inhibition of radioligand binding, human melanin-concentrating hormone (MCH1): [125I]-S36057
T6 construct: purchased Perkin Elmer Biosignal
Summary of the method: as §1

Human μ-opioid (MOP) = molecular target: T7, Human μ-opioid (MOP) (Homo sapiens, UniProt P35372); experiment: Radioligand binding, human μ-opioid (MOP) membranes, FlashPlate, [3H]-Naloxone; settings: compound at 10 μM; for A7 radioligand binding inhibition: human μ-opioid (MOP) membranes
T7 construct: purchased Perkin Elmer Biosignal
Summary of the method: as §1

Human neurokinin (NK1) = molecular target: T8, Human neurokinin (NK1) (Homo sapiens, UniProt P25103); experiment: Radioligand binding, human neurokinin NK1 membranes, filtration, [125I]-Substance P; settings: compound at 10 μM; for A8 radioligand binding inhibition: human neurokinin NK1 membranes
T8 construct: purchased Perkin Elmer Biosignal
Summary of the method: as §2

[2] = molecular target: T9, Human neuropeptide Y (NPY-Y1) (Homo sapiens, UniProt P25929); experiment: Radioligand binding, human neuropeptide Y NPY-Y1 membranes, FlashPlate, [125I]-PYY; settings: compound at 10 μM
T9 construct: purchased Perkin Elmer Biosignal
T9 sequence (P25929 1-384): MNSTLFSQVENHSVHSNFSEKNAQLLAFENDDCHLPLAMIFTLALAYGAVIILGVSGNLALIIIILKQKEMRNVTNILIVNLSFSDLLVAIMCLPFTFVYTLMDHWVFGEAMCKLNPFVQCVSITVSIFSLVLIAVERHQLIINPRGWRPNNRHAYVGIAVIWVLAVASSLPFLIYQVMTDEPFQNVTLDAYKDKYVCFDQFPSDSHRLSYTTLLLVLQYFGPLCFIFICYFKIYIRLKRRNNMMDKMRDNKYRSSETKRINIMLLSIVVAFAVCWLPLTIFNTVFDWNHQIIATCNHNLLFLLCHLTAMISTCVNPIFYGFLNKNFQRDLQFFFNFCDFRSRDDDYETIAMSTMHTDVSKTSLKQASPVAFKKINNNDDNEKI
Summary of the method: as §1

Human opioid (ORL1) = molecular target: T10, Human opioid (ORL1) (Homo sapiens, UniProt P41146); experiment: Radioligand binding, human opioid ORL1 membranes, FlashPlate, [125I]-Nociceptin; settings: compound at 10 μM
T10 construct: purchased Perkin Elmer Biosignal
Summary of the method: as §1

Mouse urotensin (mUR2) = molecular target: T11, Mouse urotensin (mUR2) (Mus musculus, UniProt Q8VIH9); experiment: Radioligand binding, mouse urotensin mUR2 membranes, FlashPlate, [125I]-Urotensin II; settings: compound at 10 μM; for A11 radioligand binding inhibition: mouse urotensin mUR2 membranes
T11 construct: purchased Perkin Elmer Biosignal
T11 sequence (Q8VIH9 1-385): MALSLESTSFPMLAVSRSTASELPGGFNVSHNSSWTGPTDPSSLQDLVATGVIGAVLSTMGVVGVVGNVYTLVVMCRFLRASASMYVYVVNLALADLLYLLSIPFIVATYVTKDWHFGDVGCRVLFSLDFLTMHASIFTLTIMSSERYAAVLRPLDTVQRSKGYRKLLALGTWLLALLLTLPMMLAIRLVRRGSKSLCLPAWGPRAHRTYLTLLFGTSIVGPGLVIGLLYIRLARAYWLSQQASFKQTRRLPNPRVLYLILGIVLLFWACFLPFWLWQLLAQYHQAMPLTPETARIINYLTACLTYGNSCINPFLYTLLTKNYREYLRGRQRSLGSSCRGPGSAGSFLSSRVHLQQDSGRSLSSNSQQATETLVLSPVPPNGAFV
Summary of the method: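 Cloned mouse urotensin (mUR2) receptor membranes from Perkin Elmer Biosignal were immobilized in FlashPlate microplates using a proprietary coating. Each well got 19.5 μl buffer, then 0.5 μl of DMSO, reference ligand, or compound. Adding 5 μl of [125I]-Urotensin II, diluted to 5× final concentration in binding buffer, started binding. Plates were sealed with TopSeal-A and incubated 1 hour at room temperature in the dark. Wells were counted for 30 seconds each on a TopCount after a 60-second delay, and percentage inhibition was calculated.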

T7 sequence (P35372 whole entry): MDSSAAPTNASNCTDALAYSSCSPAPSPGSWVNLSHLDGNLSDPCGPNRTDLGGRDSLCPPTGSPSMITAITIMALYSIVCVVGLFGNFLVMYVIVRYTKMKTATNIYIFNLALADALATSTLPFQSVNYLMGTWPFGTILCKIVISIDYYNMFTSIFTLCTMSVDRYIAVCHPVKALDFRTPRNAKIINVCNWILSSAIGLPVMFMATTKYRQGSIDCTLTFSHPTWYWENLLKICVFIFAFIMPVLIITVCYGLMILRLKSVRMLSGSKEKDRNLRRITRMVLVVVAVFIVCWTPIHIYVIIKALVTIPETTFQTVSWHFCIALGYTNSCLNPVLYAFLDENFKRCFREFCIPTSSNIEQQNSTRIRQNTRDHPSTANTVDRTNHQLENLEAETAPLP
T2 sequence (P41145 whole entry): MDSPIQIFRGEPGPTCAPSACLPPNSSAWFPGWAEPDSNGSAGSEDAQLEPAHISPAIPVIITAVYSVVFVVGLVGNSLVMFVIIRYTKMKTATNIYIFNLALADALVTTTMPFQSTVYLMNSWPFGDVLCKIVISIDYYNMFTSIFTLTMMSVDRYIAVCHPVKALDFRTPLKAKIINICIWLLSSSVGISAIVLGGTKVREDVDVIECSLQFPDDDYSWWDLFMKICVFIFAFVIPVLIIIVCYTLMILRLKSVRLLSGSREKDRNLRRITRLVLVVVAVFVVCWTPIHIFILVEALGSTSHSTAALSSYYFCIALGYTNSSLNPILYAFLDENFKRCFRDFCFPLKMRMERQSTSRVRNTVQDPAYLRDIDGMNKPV
T8 sequence (P25103 whole entry): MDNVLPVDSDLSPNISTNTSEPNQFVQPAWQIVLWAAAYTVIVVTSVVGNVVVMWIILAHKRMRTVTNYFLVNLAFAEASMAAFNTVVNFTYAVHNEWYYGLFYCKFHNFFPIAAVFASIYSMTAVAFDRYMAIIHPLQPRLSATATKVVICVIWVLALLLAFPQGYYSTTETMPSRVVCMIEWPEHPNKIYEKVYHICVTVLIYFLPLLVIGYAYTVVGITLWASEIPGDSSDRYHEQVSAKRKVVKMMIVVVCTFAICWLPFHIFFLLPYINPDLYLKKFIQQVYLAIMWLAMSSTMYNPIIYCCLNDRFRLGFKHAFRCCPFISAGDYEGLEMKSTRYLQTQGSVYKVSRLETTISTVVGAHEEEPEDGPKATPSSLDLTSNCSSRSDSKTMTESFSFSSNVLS
T10 sequence (P41146 whole entry): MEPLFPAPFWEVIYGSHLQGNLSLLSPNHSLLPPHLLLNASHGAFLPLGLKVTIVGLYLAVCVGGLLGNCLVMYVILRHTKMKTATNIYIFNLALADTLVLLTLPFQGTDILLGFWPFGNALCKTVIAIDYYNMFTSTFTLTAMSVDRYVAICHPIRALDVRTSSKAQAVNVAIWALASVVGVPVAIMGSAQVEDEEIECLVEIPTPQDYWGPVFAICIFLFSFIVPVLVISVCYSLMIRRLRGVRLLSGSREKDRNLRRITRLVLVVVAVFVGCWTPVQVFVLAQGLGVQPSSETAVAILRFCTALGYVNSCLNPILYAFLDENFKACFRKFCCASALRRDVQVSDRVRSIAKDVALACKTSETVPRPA
T4 sequence (P32245 whole entry): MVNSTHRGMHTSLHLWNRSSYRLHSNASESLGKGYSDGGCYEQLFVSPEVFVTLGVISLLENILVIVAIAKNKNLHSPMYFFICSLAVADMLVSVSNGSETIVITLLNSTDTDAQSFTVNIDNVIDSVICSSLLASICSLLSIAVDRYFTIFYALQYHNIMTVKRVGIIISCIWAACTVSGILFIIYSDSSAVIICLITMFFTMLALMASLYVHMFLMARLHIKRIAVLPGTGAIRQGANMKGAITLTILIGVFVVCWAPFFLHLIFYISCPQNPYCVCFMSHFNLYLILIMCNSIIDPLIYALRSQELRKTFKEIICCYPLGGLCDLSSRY
T6 sequence (Q99705 whole entry): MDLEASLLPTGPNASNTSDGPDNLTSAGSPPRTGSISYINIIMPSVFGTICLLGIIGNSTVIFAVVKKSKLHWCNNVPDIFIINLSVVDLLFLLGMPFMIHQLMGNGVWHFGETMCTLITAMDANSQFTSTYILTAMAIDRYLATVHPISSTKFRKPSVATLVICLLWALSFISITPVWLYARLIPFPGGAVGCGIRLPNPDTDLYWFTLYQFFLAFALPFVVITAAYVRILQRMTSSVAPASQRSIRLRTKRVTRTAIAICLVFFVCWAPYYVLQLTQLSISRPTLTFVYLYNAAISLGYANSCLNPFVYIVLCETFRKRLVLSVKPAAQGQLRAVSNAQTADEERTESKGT
T5 sequence (P33032 whole entry): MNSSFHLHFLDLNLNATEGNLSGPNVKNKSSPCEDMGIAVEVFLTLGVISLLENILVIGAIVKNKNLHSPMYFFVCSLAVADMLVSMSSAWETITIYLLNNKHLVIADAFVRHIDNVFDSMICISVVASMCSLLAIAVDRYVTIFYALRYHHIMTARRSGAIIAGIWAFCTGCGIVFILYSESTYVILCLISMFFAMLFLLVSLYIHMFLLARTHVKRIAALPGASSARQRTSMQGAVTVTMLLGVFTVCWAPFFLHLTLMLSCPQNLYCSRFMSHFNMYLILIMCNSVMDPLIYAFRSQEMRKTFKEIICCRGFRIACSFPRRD
T3 sequence (P41968 whole entry): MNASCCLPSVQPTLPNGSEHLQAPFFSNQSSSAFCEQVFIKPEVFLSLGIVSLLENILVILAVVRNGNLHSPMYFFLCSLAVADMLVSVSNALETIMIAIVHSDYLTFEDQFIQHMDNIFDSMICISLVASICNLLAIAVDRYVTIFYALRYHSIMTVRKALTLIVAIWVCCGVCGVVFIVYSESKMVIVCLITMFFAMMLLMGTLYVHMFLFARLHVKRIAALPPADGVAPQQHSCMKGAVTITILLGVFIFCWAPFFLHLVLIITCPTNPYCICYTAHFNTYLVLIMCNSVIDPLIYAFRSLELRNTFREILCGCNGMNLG
T1 sequence (P41143 whole entry): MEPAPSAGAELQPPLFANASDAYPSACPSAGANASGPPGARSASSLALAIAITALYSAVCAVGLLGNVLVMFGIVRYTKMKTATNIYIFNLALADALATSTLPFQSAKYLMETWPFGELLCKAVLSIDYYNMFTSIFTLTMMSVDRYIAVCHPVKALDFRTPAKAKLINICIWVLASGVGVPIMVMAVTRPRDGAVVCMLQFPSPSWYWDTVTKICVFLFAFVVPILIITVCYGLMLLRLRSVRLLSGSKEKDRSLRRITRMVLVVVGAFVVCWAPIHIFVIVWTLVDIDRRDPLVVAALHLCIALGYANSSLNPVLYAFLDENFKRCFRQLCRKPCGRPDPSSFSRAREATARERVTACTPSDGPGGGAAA

| Structure (SMILES) | A1 radioligand binding inhibition (Human δ-opioid (DOP)) | A2 radioligand binding inhibition (Human κ-Opioid (KOP)) | A3 radioligand binding inhibition (Human Melanocortin (MC3)) | A4 radioligand binding inhibition (Human Melanocortin (MC4)) | A5 radioligand binding inhibition (Human melanocortin (MC5)) | A6 radioligand binding inhibition [1] | A7 radioligand binding inhibition (Human μ-opioid (MOP)) | A8 radioligand binding inhibition (Human neurokinin (NK1)) | A9 radioligand binding inhibition ([2]; human NPY-Y1 membranes) | A10 radioligand binding inhibition (Human opioid (ORL1); human ORL1 membranes) | A11 radioligand binding inhibition (Mouse urotensin (mUR2)) | A1: inhibition of radioligand binding, human δ-opioid (DOP) (Human δ-opioid (DOP); [3H]-Bremazocine) | A2: inhibition of radioligand binding, human κ-opioid (KOP) (Human κ-Opioid (KOP); [3H]-Diprenorphine) | A3: inhibition of radioligand binding, human melanocortin (MC3) (Human Melanocortin (MC3); [125I]-NDP-αMSH) | A4: inhibition of radioligand binding, human melanocortin (MC4) (Human Melanocortin (MC4); [125I]-NDP-αMSH) | A5: inhibition of radioligand binding, human melanocortin (MC5) (Human melanocortin (MC5); [125I]-NDP-αMSH) | A6: inhibition of radioligand binding, human melanin-concentrating hormone (MCH1) [1] | A7: inhibition of radioligand binding, human μ-opioid (MOP) (Human μ-opioid (MOP); [3H]-Naloxone) | A8: inhibition of radioligand binding, human neurokinin (NK1) (Human neurokinin (NK1); [125I]-Substance P) | A9: inhibition of radioligand binding, human neuropeptide Y (NPY-Y1) ([2]; [125I]-PYY) | also measured |
| --- | --- | --- | --- | --- | --- | --- | --- | --- | --- | --- | --- | --- | --- | --- | --- | --- | --- | --- | --- | --- | --- |
| COC[C@H]1OC(OCc2ccccc2)[C@H](NC(=O)CCCNC(=N)N)[C@@H](OCc2ccc(-c3ccccc3)cc2)[C@@H]1O (stereo partly shown) [compound 25] | − (“−” indicates less than 50% inhibition at 10 μM) | − (“−” indicates less than 50% inhibition at 10 μM) | − (“−” indicates less than 50% inhibition at 10 μM) | + (“+” indicates greater than 50% inhibition at 10 μM) | + (“+” indicates greater than 50% inhibition at 10 μM) | + (“+” indicates greater than 50% inhibition at 10 μM) | − (“−” indicates less than 50% inhibition at 10 μM) | + (“+” indicates greater than 50% inhibition at 10 μM) | − (“−” indicates less than 50% inhibition at 10 μM) | − (“−” indicates less than 50% inhibition at 10 μM) | − (“−” indicates less than 50% inhibition at 10 μM) |  |  |  |  |  |  |  |  |  |  |
| N=C(N)NCC(=O)N[C@H]1C(OCc2ccc(Cl)cc2)O[C@H](COCc2ccc(Cl)cc2)[C@@H](O)[C@@H]1OCc1ccc(-c2ccccc2)cc1 (stereo partly shown) [compound 520] |  |  |  |  |  |  |  |  |  |  |  | − (“−” indicates less than 50% inhibition at 10 μM) | − (“−” indicates less than 50% inhibition at 10 μM) | + (“+” indicates greater than 50% inhibition at 10 μM) | + (“+” indicates greater than 50% inhibition at 10 μM) | + (“+” indicates greater than 50% inhibition at 10 μM) | + (“+” indicates greater than 50% inhibition at 10 μM) | − (“−” indicates less than 50% inhibition at 10 μM) | + (“+” indicates greater than 50% inhibition at 10 μM) | − (“−” indicates less than 50% inhibition at 10 μM) | A10: inhibition of radioligand binding, human opioid (ORL1) (Human opioid (ORL1); [125I]-Nociceptin, 10 µM): − (“−” indicates less than 50% inhibition at 10 μM); A11: inhibition of radioligand binding, mouse urotensin (mUR2) (Mouse urotensin (mUR2); [125I]-Urotensin II): − (“−” indicates less than 50% inhibition at 10 μM) |
| CO[C@H]1[C@H](O)[C@@H](COCc2ccc(-c3ccccc3)cc2)OC(OCc2ccc(-c3ccccc3)cc2)[C@@H]1NC(=O)CNC(=N)N (stereo partly shown) [compound 51] | − (“−” indicates less than 50% inhibition at 10 μM) | − (“−” indicates less than 50% inhibition at 10 μM) | + (“+” indicates greater than 50% inhibition at 10 μM) | + (“+” indicates greater than 50% inhibition at 10 μM) | + (“+” indicates greater than 50% inhibition at 10 μM) | + (“+” indicates greater than 50% inhibition at 10 μM) | − (“−” indicates less than 50% inhibition at 10 μM) | + (“+” indicates greater than 50% inhibition at 10 μM) | − (“−” indicates less than 50% inhibition at 10 μM) | + (“+” indicates greater than 50% inhibition at 10 μM) | − (“−” indicates less than 50% inhibition at 10 μM) |  |  |  |  |  |  |  |  |  |  |
| NCCC(=O)NC1C(OCc2ccccc2)OC(COCc2ccccc2)C(O)C1OCc1ccc(Cl)cc1 (stereo not shown) [compound 365] |  |  |  |  |  |  |  |  |  |  |  | − (“−” indicates less than 50% inhibition at 10 μM) | − (“−” indicates less than 50% inhibition at 10 μM) | − (“−” indicates less than 50% inhibition at 10 μM) | − (“−” indicates less than 50% inhibition at 10 μM) | − (“−” indicates less than 50% inhibition at 10 μM) | − (“−” indicates less than 50% inhibition at 10 μM) | − (“−” indicates less than 50% inhibition at 10 μM) | + (“+” indicates greater than 50% inhibition at 10 μM) | − (“−” indicates less than 50% inhibition at 10 μM) | A10: inhibition of radioligand binding, human opioid (ORL1) (Human opioid (ORL1); [125I]-Nociceptin): − (“−” indicates less than 50% inhibition at 10 μM); A11: inhibition of radioligand binding, mouse urotensin (mUR2) (Mouse urotensin (mUR2); [125I]-Urotensin II): − (“−” indicates less than 50% inhibition at 10 μM) |
| NCCCC(=O)NC1C(OCc2ccc3ccccc3c2)OC(COCc2ccc3ccccc3c2)C(O)C1OCc1ccc(Cl)cc1 (stereo not shown) [compound 390] |  |  |  |  |  |  |  |  |  |  |  |  |  |  |  |  |  |  |  |  | A1: inhibition of radioligand binding (Human δ-opioid (DOP); [3H]-Bremazocine, human DOP membranes): − (“−” indicates less than 50% inhibition at 10 μM); A2: inhibition of radioligand binding (Human κ-Opioid (KOP); [3H]-Diprenorphine, human KOP membranes, 10 µM): − (“−” indicates less than 50% inhibition at 10 μM); A3: inhibition of radioligand binding (Human Melanocortin (MC3); [125I]-NDP-αMSH, human MC3 membranes): + (“+” indicates greater than 50% inhibition at 10 μM); A4: inhibition of radioligand binding (Human Melanocortin (MC4); [125I]-NDP-αMSH, human MC4 membranes): + (“+” indicates greater than 50% inhibition at 10 μM); A5: inhibition of radioligand binding (Human melanocortin (MC5); [125I]-NDP-αMSH, human MC5 membranes): + (“+” indicates greater than 50% inhibition at 10 μM); A6: inhibition of radioligand binding ([1]; [125I]-S36057, human MCH1 membranes): + (“+” indicates greater than 50% inhibition at 10 μM); A7: inhibition of radioligand binding (Human μ-opioid (MOP); [3H]-Naloxone, human MOP membranes, 10 µM): − (“−” indicates less than 50% inhibition at 10 μM); A8: inhibition of radioligand binding (Human neurokinin (NK1); [125I]-Substance P, human NK1 membranes): + (“+” indicates greater than 50% inhibition at 10 μM); A9: inhibition of radioligand binding ([2]; [125I]-PYY, human NPY-Y1 membranes): − (“−” indicates less than 50% inhibition at 10 μM); A10: inhibition of radioligand binding (Human opioid (ORL1); [125I]-Nociceptin, human ORL1 membranes, 10 µM): + (“+” indicates greater than 50% inhibition at 10 μM); A11: inhibition of radioligand binding (Mouse urotensin (mUR2); [125I]-Urotensin II, mouse mUR2 membranes): − (“−” indicates less than 50% inhibition at 10 μM) |
